Measurements from patent publication US20040028714A1, “Composition having insect repellent characteristics” (priority 2000, published 2004).
Several values for one entry are separate records, joined by “and”; a condition that tells them apart may be missing. Identical values can stand only once.

Tests used:
Format in all cases: in vivo
[1] = system: Black Ants (Ochetellus sp); assay: Ant repellency on half-treated formica (Example 4); conditions: 20 mg/m^2 on formica; for Number of Black Ants present, Treated Section / Number of Black Ants present, Untreated Section / Number of Black Ants, Dead: single replicates (n = 20); for Number of Black Ants present, Treated Section, Total / Number of Black Ants present, Untreated Section, Total / Number of Black Ants, Dead, Total: total of 4 replicates (80)
Procedure: The effectiveness of compound 2 (example 1) as an insect repellent was determined using ants exposed to a formica surface partially treated/partially untreated with compound 2, and was directly compared to the repellency of the well known insect repellents Farnesol and Dihydrofarnesal.
The study was conducted in an air conditioned laboratory at a temperature of 22°±2° C. under a normal day/night cycle, using Black Ants (Ochetellus sp) of mixed sex and age. The study ws conducted over a 3 day period and the repellent effectiveness assessed 1, 2 and 3 days after ant introduction.
One half of a rectangle of formica 40 cm×30 cm was treated at 20 mg/m^2 with the test compounds. This was achieved by soaking a paper wipe (Rag On A Roll approximately 20 cm×20 cm) in a solution of the test compound in ethanol, squeezing out the excess liquid and wiping over the surface to give the required coverage. This was checked by weighing the cloth after application. The surface was allowed to dry. The other half was wiped with ethanol alone (untreated surface).
The treated formica rectangle was placed on the bench and a glass ring (diameter 20 cm) was placed on the rectangle. This had been treated with fluon to prevent ant escape.
A small plastic container 2 cm in diameter was placed on the formica, one on the treated surface and one on the untreated surface. The plastic container placed on the treated surface had repellent applied in the same way as the treated formica. The plastic container on the untreated surface was wiped with ethanol.
24 hours after treatment (1 day) 20 ants were added to the centre of the formica. No food and water was supplied for these ants. 2 hours after this the number of ants on the treated and untreated surfaces was counted.
The above was repeated 3 times to provide a total of 4 replicates.
The above was repeated at 2 days and 3 days. New ants were used at each time period.

[2] = system: German cockroaches (Blatella Germanica); assay: Cockroach repellency screening on partially treated formica surface (Example 2); conditions: cockroaches, 20 mg/m^2 on formica
Procedure: The effectiveness of compounds of formula I as an insect repellent was determined using German cockroaches exposed to a formica surface partially treated/partially untreated with a test compound of formula I. The study was conducted in an air conditioned laboratory at a temperature of 22°±2° C. under a normal day/night cycle, using German cockroaches (Blatella Germanica) of mixed sex and age. The study was conducted over a 3 day period and the repellent effectiveness assessed 1, 2 and 3 days after cockroach introduction. A rectangle of formica 40 cm×30 cm was treated at 20 mg/m^2 with a test compound of formula I. This was achieved by soaking a paper wipe (Rag on a Roll ca 20 cm×20 cm) in a solution of the test compound in ethanol, squeezing out the excess liquid and wiping over the surface to give the required coverage. This was checked by weighing the cloth after application. The surface was allowed to dry. A similar rectangle was wiped with ethanol alone (untreated surface). The treated formica rectangle was placed on the bench and a plastic container was placed on the rectangle. This had been treated with fluon to prevent cockroach escape. Two sheets of formica (10 cm×10 cm) were placed on the formica, one on the treated surface and one on the untreated surface. This acted as a cockroach harbourage. The formica sheet to be used in the treated section was treated at the same rate as the treated formica. The formica was placed on two 1 cm high bottle tops to allow cockroaches access under the formica. 20 German cockroaches were added (5 adults and 15 nymphs) to the centre of the formica. No food and water was supplied for these cockroaches. At 1, 2 and 3 days after cockroach introduction the number of cockroaches under each harbourage was counted. After each count the harbourage position was change to avoid the possibility of […] were replaced and new cockroaches were added to replace any dead cockroaches. The above was repeated 3 times to provide a total of 4 replicates.

[3] = system: Casemaking Clothes Moths (Tinea pellionella); assay: Adult clothes moth repellency on treated woolen cloth (Example 5); conditions: fabric soaked in 20 g/L in ethanol, 2 days after moth introduction
Procedure: The effectiveness of compound 2 (example 1) to reduce the presence of cloth moths on woolen cloth was determined and was directly compared to the repellency of the well known moth repellents Citronellol and Farnesol.
The study was conducted in an air conditioned laboratory at a temperature of 22°±2° C. under a normal day/night cycle, using Casemaking Clothes Moths (Tinea pellionella) of mixed sex and age. The study is conducted over a 5 days period and the repellent effectiveness was assessed as follows:
Adults—2 days after insect introduction
A 10 cm×10 cm square of black woolen fabric free of bactericide) was soaked in a solution of the candidate repellent in ethanol at 20 g/L, squeezed and allowed to dry. The woollen square was placed in a small box (5 cm×10 cm×10 cm) which was open at one end to allow entry of adult clothes moth.
A similar square of fabric treated with ethanol (control) was placed in another box of the same size.
These two boxes were placed in an aquarium and 50 mixed sex adult moths were added. These were provided with food and water and left for 5 days.
At the end of 2 days the number of adult moths in each box was counted.
The above was repeated 3 times to provide 4 replicates.

[4] = ants, average of days 1, 2 and 3
[5] = share of moths found in the two boxes

SMILES: CCNC(=O)C1CC(C)CCC1C(C)C (stereo not drawn) [Compound 2, N-ethyl-p-menthane-3-carboxamide]
- ant repellency (in words) ([1]; 1, 2 and 3 days after treatment): superior to these two products
- Number of Black Ants present, Treated Section ([1]; day 1): 0 (2×) and 2 and 1
- Number of Black Ants present, Untreated Section ([1]; day 1): 20 (2×) and 18 and 19
- Number of Black Ants, Dead ([1]; day 1): 0
- Number of Black Ants present, Treated Section, Total ([1]; day 1): 3
- Number of Black Ants present, Untreated Section, Total ([1]; day 1): 77
- Number of Black Ants, Dead, Total ([1]; day 1): 0
- Number of Black Ants present, Treated Section ([1]; day 2): 1 and 3 (2×) and 2
- Number of Black Ants present, Untreated Section ([1]; day 2): 19 and 17 (2×) and 18
- Number of Black Ants, Dead ([1]; day 2): 0
- Number of Black Ants present, Treated Section, Total ([1]; day 2): 9
- Number of Black Ants present, Untreated Section, Total ([1]; day 2): 71
- Number of Black Ants, Dead, Total ([1]; day 2): 0
- Number of Black Ants present, Treated Section ([1]; day 3): 0 and 1 and 2 and 3
- Number of Black Ants present, Untreated Section ([1]; day 3): 20 and 19 and 18 and 17
- Number of Black Ants, Dead ([1]; day 3): 0
- Number of Black Ants present, Treated Section, Total ([1]; day 3): 6
- Number of Black Ants present, Untreated Section, Total ([1]; day 3): 74
- Number of Black Ants, Dead, Total ([1]; day 3): 0
- Percentage Dead ([1]; ants, 1 day after treatment): 0%
- Percentage Present, Treated Section ([1]; ants, 1 day after treatment): 3.7%
- Percentage Present, Untreated Section ([1]; ants, 1 day after treatment): 96.3%
- Percentage Dead ([1]; ants, 2 days after treatment): 0%
- Percentage Present, Treated Section ([1]; ants, 2 days after treatment): 11.2%
- Percentage Present, Untreated Section ([1]; ants, 2 days after treatment): 88.8%
- Percentage Dead ([1]; ants, 3 days after treatment): 0%
- Percentage Present, Treated Section ([1]; ants, 3 days after treatment): 7.5%
- Percentage Present, Untreated Section ([1]; ants, 3 days after treatment): 92.5%
- Percentage Dead, Average [1, 4]: 0%
- Percentage Present, Treated Section, Average [1, 4]: 7.5%
- Percentage Present, Untreated Section, Average [1, 4]: 92.5%
- Percentage Dead ([2]; 1 day after treatment): 0%
- Percentage Present, Treated Section ([2]; 1 day after treatment): 17.5%
- Percentage Present, Untreated Section ([2]; 1 day after treatment): 82.5%
- Percentage Dead ([2]; 2 days after treatment): 1.2%
- Percentage Present, Treated Section ([2]; 2 days after treatment): 16.3%
- Percentage Present, Untreated Section ([2]; 2 days after treatment): 82.5%
- Percentage Dead ([2]; 3 days after treatment): 2.5%
- Percentage Present, Treated Section ([2]; 3 days after treatment): 13.8%
- Percentage Present, Untreated Section ([2]; 3 days after treatment): 83.7%
- Percentage Present, Treated Section, Average ([2]; average of days 1, 2 and 3): 15.9%
- Percentage Present, Untreated Section, Average ([2]; average of days 1, 2 and 3): 82.9%
- Moths Present, Treated Section, Total (%) [3, 5]: (29.4%)
- Moths Present, Untreated Section, Total (%) [3, 5]: (70.6%)
- The Number of Moths Present, Treated Section ([3]; single replicates (n = 50)): 6 and 7 and 11 and 8
- The Number of Moths Present, Untreated Section ([3]; single replicates (n = 50)): 9 and 19 and 27 and 22
- The Number of Moths Present, Treated Section, Total ([3]; total of 4 replicates): 32
- The Number of Moths Present, Untreated Section, Total ([3]; total of 4 replicates): 77
